The source made the active and inactive calls. The calls are words filed in the database; no cut-off is given here.
Legend:
[1] = Cytotoxicity against human MRC5 cells assessed as cell growth inhibition; type: toxicity, cell-based
[2] = Cytotoxicity against human BJ cells assessed as cell growth inhibition at 10 uM relative to control; type: toxicity, cell-based; conditions: read-out: GI
Mus musculus [3] = experiment: Antidiabetic activity against high fat diet-STZ-induced diabetic Swiss albino mouse model assessed as reduction in blood glucose level at 0.2 mmol/Kg/day, po administered for 14 days relative to glimepiride; type: functional; parameters: scale not given: the % may be the effect or the level left; conditions: time 14 day
INS1 [4] = experiment: Induction of apoptosis in rat INS1 cells assessed as necrotic cells at 1 uM incubated for 36 hrs by Annexin V-FITC/ propidium iodide staining based flow cytometry analysis (reference value: 1.15%); type: functional
Mus musculus [5] = experiment: Antidiabetic activity against high fat diet-STZ-induced diabetic Swiss albino mouse model assessed as insulin resistance by measuring serum IL6 level at 0.2 mmol/Kg/day, po administered for 14 days by ELISA method (reference value: 39.30+/-4.14 pg/ml); type: functional; conditions: time 14 day
INS1 [6] = experiment: Induction of rat INS1 cells regeneration incubated for 24 hrs by CCK8 assay; type: functional, cell-based
Dipeptidyl peptidase 4 [7] = molecular target: T1, Dipeptidyl peptidase 4 (Homo sapiens, UniProt P27487); experiment: Inhibition of DPP-4 (unknown origin) incubated for 30 mins in presence of substrate by fluorescence based analysis
Target sequence in this assay (P27487 whole entry): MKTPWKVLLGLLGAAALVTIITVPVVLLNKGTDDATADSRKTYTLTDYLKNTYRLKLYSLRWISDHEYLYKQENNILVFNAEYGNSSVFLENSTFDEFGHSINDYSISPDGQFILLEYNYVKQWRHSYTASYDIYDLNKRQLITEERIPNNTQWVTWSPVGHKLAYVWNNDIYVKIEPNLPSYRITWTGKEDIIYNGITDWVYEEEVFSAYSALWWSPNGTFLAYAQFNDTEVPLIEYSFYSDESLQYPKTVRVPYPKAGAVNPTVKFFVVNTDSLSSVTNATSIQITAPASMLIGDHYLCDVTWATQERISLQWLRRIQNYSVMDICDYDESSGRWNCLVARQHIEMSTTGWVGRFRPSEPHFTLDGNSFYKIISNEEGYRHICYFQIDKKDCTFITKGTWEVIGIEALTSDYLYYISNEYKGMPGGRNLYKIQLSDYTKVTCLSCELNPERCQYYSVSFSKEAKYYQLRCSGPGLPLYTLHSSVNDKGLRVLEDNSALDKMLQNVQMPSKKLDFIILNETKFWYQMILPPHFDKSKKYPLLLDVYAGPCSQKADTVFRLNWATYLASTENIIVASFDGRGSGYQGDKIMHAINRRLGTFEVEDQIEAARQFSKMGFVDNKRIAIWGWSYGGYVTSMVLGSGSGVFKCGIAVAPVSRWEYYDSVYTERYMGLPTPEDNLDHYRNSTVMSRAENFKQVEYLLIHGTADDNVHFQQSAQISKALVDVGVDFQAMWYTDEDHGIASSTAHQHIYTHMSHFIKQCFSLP

[8] = Acute toxicity in Swiss albino mouse assessed as effect on behavioural change up to 2000 mg/kg, po administered for 14 days; type: organism-based; conditions: in vivo, 336 h, time 14 day
[9] = Cytotoxicity against human THLE-2 cells assessed as cell growth inhibition at 10 uM relative to control; type: toxicity, cell-based; conditions: read-out: GI
Mus musculus [10] = experiment: Antidiabetic activity against high fat diet-STZ-induced diabetic Swiss albino mouse model assessed as increase in appearance of insulin immunopositive areas in pancreatic sections at 0.2 mmol/kg/day, po administered for 14 days by […] based analysis; type: functional, organism-based; conditions: time 14.0 day
[11] = Cytotoxicity against human MCF-10F cells assessed as cell growth inhibition at 10 uM relative to control; type: toxicity, cell-based; conditions: read-out: GI
[12] = molecular target: voltage dependent L-type calcium channel (Rattus norvegicus, UniProt P22002+P27732+Q02485); experiment: Inhibition of voltage dependent L-type calcium channel in rat A7R5 cells
[13] = Cytotoxicity against HEK293 cells assessed as cell growth inhibition; type: toxicity, cell-based; conditions: human
Mus musculus [14] = experiment: Antioxidant activity against high fat diet-STZ-induced diabetic Swiss albino mouse model assessed as serum MDA level at 0.2 mmol/Kg/day, po administered for 14 days (reference value: 8.70+/- 0.09 nmol/ml); type: functional; conditions: time 14 day
[15] = Acute toxicity in Swiss albino mouse assessed as effect on motor alterations up to 2000 mg/kg, po administered for 14 days; type: organism-based; conditions: in vivo, 336 h, time 14 day
[16] = tested on: voltage dependent L/T-type calcium channel; experiment: Inhibition of voltage dependent L/T-type calcium channel in human SH-SY5Y cells; conditions: SH-SY5Y cells
[17] = molecular target: Alpha amylase (Homo sapiens) (UniProt P0DUB6); experiment: Inhibition of alpha amylase (unknown origin) measured after 20 to 25 mins relative to quercetin; conditions: time 20-25 min
[18] = Cytotoxicity against human ECT1/E6E7 cells assessed as cell growth inhibition at 10 uM relative to control; type: toxicity, cell-based; conditions: read-out: GI
Mus musculus [19] = experiment: Antidiabetic activity against high fat diet-STZ-induced diabetic Swiss albino mouse model assessed as insulin resistance by measuring serum TNFalpha level at 0.2 mmol/Kg/day, po administered for 14 days by ELISA method (reference value: 376.50+/-14.50 ng/ml); type: functional; conditions: time 14 day
Mus musculus [20] = experiment: Antidiabetic activity against high fat diet-STZ-induced diabetic Swiss albino mouse model assessed as serum insulin level at 0.2 mmol/Kg/day, po administered for 14 days by ELISA method (reference value: 16.37 +/- 0.62 uU/ml); type: functional; conditions: time 14 day
[21] = Tmax in Swiss albino mouse plasma at 0.2 mmol/Kg, po measured after 24 hrs by HPLC analysis; type: ADME, organism-based
[22] = Cytotoxicity against human WPE1-NA22 cells assessed as cell growth inhibition at 10 uM relative to control; type: toxicity, cell-based; conditions: read-out: GI
[23] = molecular target: T2, Sodium/glucose cotransporter 2 (Homo sapiens, UniProt P31639); experiment: Inhibition of human SGLT2 by liquid scintillation counter analysis
T2 sequence (P31639 whole entry): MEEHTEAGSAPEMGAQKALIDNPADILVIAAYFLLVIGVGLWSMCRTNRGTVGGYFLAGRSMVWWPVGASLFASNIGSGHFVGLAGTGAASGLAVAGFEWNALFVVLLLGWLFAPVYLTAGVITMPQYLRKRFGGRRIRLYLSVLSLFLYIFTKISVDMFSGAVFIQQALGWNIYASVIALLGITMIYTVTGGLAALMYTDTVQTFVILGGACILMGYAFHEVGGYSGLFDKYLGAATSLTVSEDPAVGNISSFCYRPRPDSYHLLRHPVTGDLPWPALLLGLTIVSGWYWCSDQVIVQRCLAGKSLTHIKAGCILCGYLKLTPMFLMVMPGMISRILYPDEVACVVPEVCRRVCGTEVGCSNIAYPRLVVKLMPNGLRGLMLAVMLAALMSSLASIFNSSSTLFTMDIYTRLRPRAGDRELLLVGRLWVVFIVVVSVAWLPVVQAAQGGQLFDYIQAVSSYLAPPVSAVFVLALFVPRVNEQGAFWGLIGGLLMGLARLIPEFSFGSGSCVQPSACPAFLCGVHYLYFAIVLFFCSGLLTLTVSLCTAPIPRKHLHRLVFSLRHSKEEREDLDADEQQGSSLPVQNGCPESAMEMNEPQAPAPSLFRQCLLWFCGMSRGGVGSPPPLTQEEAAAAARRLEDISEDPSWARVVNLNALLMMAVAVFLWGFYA

[24] = Cmax in Swiss albino mouse plasma at 0.2 mmol/Kg, po measured after 24 hrs by HPLC analysis; type: ADME, organism-based; parameters: time 24 hrs, dose 0.2 mmol/Kg, route po
Dipeptidyl peptidase 4 [25] = molecular target: T1, Dipeptidyl peptidase 4; experiment: Inhibition of DPP-4 (unknown origin) incubated for 30 mins in presence of substrate by fluorescence based analysis relative to sitagliptin
Target sequence in this assay (P27487 whole entry, looked up): as the sequence (P27487 whole entry) above

[26] = Cytotoxicity against HEK293 cells assessed as cell growth inhibition at 10 uM relative to control; type: toxicity, cell-based; conditions: human, read-out: GI
[27] = Cytotoxicity against human MCF-10F cells assessed as cell growth inhibition; type: toxicity, cell-based
INS1 [28] = experiment: Induction of apoptosis in rat INS1 cells assessed as total apoptotic cells at 1 uM incubated for 36 hrs by Annexin V-FITC/ propidium iodide staining based flow cytometry analysis (reference value: 0.53%); type: functional
INS1 [29] = experiment: Induction of apoptosis in rat INS1 cells assessed as late apoptotic cells at 1 uM incubated for 36 hrs by Annexin V-FITC/ propidium iodide staining based flow cytometry analysis (reference value: 0.19%); type: functional

Chain of Alpha amylase (Homo sapiens) (P0DUB6 whole entry, looked up): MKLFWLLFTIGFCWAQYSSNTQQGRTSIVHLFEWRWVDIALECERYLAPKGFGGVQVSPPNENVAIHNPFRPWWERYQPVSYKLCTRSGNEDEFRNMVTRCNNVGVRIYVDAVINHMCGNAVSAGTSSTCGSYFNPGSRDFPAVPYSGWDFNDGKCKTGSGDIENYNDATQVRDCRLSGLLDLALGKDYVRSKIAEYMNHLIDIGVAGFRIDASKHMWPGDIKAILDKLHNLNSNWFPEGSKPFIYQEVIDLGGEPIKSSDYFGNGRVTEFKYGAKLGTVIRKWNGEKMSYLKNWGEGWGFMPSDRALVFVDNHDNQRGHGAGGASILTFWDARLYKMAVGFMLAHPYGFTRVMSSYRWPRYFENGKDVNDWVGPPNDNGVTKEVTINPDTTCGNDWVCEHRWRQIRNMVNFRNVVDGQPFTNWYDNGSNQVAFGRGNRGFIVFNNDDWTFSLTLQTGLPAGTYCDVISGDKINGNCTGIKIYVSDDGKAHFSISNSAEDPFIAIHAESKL

## CCOC(=O)C1=C(C)NC(C)=C(C(=O)OCC)C1c1cccc2c1OCO2
[1]
  GI50: 61.8 µM
[2]
  inhibition at 10 µM: 34.5%
Mus musculus [3]
  Activity: 218%
INS1 [4]
  Activity: 1.46%
Mus musculus [5]
  Activity: 96.07 pg/mL
INS1 [6]
  Activity: Dose-Dependent Effect
Dipeptidyl peptidase 4 [7]
  IC50: 280 µM
[8]
  Activity: Non-Toxic
[9]
  inhibition at 10 µM: 18.3%
Mus musculus [10]
  Activity: Active
[11]
  inhibition at 10 µM: 28.7%
[12]
  IC50: 12.6 µM
[13]
  GI50: 19.7 µM
Mus musculus [14]
  Activity: 8.61 nmol/mL
[15]
  Activity: Non-Toxic
[16]
  IC50: 16.5 µM
[17]
  inhibition: 47%
[18]
  inhibition at 10 µM: 18.9%
Mus musculus [19]
  Activity: 415.5 ng/mL
Mus musculus [20]
  Activity: 16.31 uU/ml
[21]
  Tmax: 48 min
[22]
  inhibition at 10 µM: 26.4%
[23]
  IC50: 411 µM
[24]
  Cmax: 10.1 µM
Dipeptidyl peptidase 4 [25]
  inhibition: < 1%
[26]
  inhibition at 10 µM: 41.3%
[27]
  GI50: 171 µM
INS1 [28]
  Activity: 0.42%
INS1 [29]
  Activity: 0.15%
